Assay results reported in patent publication US12121521B2, “Uses of salt-inducible kinase (SIK) inhibitors for treating osteoporosis” (The General Hospital Corporation, priority 2016, dated 2024).

How the values were obtained:
Assay in all cases: ScanEDGE kinase panel (DiscoverX)
Assay type in all cases: binding
[1] = molecular target: T1, RAF1 (Homo sapiens, UniProt P04049); settings: read-out: % of control activity at 71 nM
T1 construct: T7 phage fusion (most kinases) or DNA tag after HEK-293 expression; purchased DiscoverX (Fremont, CA), ScanEDGE; host or cells: T7 phage in E. coli BL21-derived host, or HEK-293
Procedure, shortened: (§1)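 Active-site competition binding panel: kinases expressed as T7 phage fusions in BL21-derived E. coli or produced in HEK-293 cells with DNA tags. Compounds compete with bead-immobilized ligand, and the kinase retained on beads is quantified by qPCR of eluates.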

[2] = molecular target: T2, SRPK3 (Homo sapiens, UniProt Q9UPE1); settings: read-out: % of control activity at 71 nM
T2 construct: T7 phage fusion (most kinases) or DNA tag after HEK-293 expression; purchased DiscoverX (Fremont, CA), ScanEDGE; host or cells: T7 phage in E. coli BL21-derived host, or HEK-293
Procedure, shortened: as §1

[3] = molecular target: T3, PIM1 (Homo sapiens, UniProt P11309); settings: read-out: % of control activity at 71 nM
T3 construct: T7 phage fusion (most kinases) or DNA tag for qPCR (kinases made in HEK-293); purchased DiscoverX; host or cells: E. coli BL21-derived host (T7 phage) or HEK-293
Procedure, shortened: as §1

[4] = molecular target: T4, CDK9 (Homo sapiens, UniProt P50750); settings: read-out: % of control activity at 71 nM
T4 construct: T7 phage fusion (most kinases) or DNA tag for qPCR (HEK-293-made kinases); purchased DiscoverX (Fremont, CA); host or cells: E. coli BL21-derived host (T7 phage) or HEK-293
Procedure, shortened: as §1

[5] = molecular target: T5, SIK2 (Homo sapiens, UniProt Q9H0K1); settings: read-out: % of control activity at 71 nM
T5 construct: T7 phage fusion (most kinases) or DNA tag after HEK-293 expression; purchased DiscoverX (Fremont, CA), ScanEDGE; host or cells: T7 phage in E. coli BL21-derived host, or HEK-293
Procedure, shortened: as §1

[6] = molecular target: T6, MAP3K4 (Homo sapiens, UniProt Q9Y6R4); settings: read-out: % of control activity at 71 nM
T6 construct: T7 phage fusion (most kinases) or DNA tag for qPCR (HEK-293-made kinases); purchased DiscoverX; host or cells: E. coli BL21-derived host (T7 phage) or HEK-293
Procedure, shortened: as §1

[7] = molecular target: T7, GSK3B (Homo sapiens, UniProt P49841); settings: read-out: % of control activity at 71 nM
T7 construct: T7 phage fusion (most kinases) or DNA tag for qPCR (HEK-293-made kinases); purchased DiscoverX; host or cells: E. coli BL21-derived host (T7 phage) or HEK-293
Procedure, shortened: as §1

[8] = molecular target: T8, JNK1 (Homo sapiens, UniProt P45983); settings: read-out: % of control activity at 71 nM
T8 construct: T7 phage fusion (most kinases) or DNA tag for qPCR (HEK-293-made kinases); purchased DiscoverX; host or cells: E. coli BL21-derived host (T7 phage) or HEK-293
Procedure, shortened: as §1

[9] = molecular target: T9, PAK2 (Homo sapiens, UniProt Q13177); settings: read-out: % of control activity at 71 nM
T9 construct: T7 phage fusion (most kinases) or DNA tag for qPCR (kinases made in HEK-293); purchased DiscoverX; host or cells: E. coli BL21-derived host (T7 phage) or HEK-293
Procedure, shortened: as §1

[10] = molecular target: T10, MARK1 (Homo sapiens, UniProt Q9P0L2); settings: read-out: % of control activity at 71 nM
T10 construct: T7 phage fusion (most kinases) or DNA tag for qPCR (HEK-293-made kinases); purchased DiscoverX; host or cells: E. coli BL21-derived host (T7 phage) or HEK-293
Procedure, shortened: as §1

[11] = molecular target: T11, AMPK-alpha1 (Homo sapiens, UniProt Q13131); settings: read-out: % of control activity at 71 nM
T11 construct: T7 phage fusion (most kinases) or DNA tag for qPCR (HEK-293-made kinases); purchased DiscoverX (Fremont, CA); host or cells: E. coli BL21-derived host (T7 phage) or HEK-293
Procedure, shortened: as §1

[12] = molecular target: T12, RET (Homo sapiens, UniProt P07949); settings: read-out: % of control activity at 71 nM
T12 construct: T7 phage fusion (most kinases) or DNA tag after HEK-293 expression; purchased DiscoverX (Fremont, CA), ScanEDGE; host or cells: T7 phage in E. coli BL21-derived host, or HEK-293
Procedure, shortened: as §1

[13] = molecular target: T13, MLK1 (Homo sapiens, UniProt P80192); settings: read-out: % of control activity at 71 nM
T13 construct: T7 phage fusion (most kinases) or DNA tag for qPCR (kinases made in HEK-293); purchased DiscoverX; host or cells: E. coli BL21-derived host (T7 phage) or HEK-293
Procedure, shortened: as §1

[14] = molecular target: T14, DYRK1B (Homo sapiens, UniProt Q9Y463); settings: read-out: % of control activity at 71 nM
T14 construct: T7 phage fusion (most kinases) or DNA tag for qPCR (HEK-293-made kinases); purchased DiscoverX (Fremont, CA); host or cells: E. coli BL21-derived host (T7 phage) or HEK-293
Procedure, shortened: as §1

[15] = molecular target: T15, AXL (Homo sapiens, UniProt P30530); settings: read-out: % of control activity at 71 nM
T15 construct: T7 phage fusion (most kinases) or DNA tag for qPCR (HEK-293-made kinases); purchased DiscoverX (Fremont, CA); host or cells: E. coli BL21-derived host (T7 phage) or HEK-293
Procedure, shortened: as §1

[16] = molecular target: T16, QSK (SIK3) (Homo sapiens, UniProt Q9Y2K2); settings: QSK refers to SIK3, read-out: % of control activity at 71 nM
T16 construct: T7 phage fusion (most kinases) or DNA tag after HEK-293 expression; purchased DiscoverX (Fremont, CA), ScanEDGE; host or cells: T7 phage in E. coli BL21-derived host, or HEK-293
Procedure, shortened: as §1

[17] = molecular target: T17, HCK (Homo sapiens, UniProt P08631); settings: read-out: % of control activity at 71 nM
T17 construct: T7 phage fusion (most kinases) or DNA tag for qPCR (HEK-293-made kinases); purchased DiscoverX; host or cells: E. coli BL21-derived host (T7 phage) or HEK-293
Procedure, shortened: as §1

[18] = molecular target: T18, TRKA (Homo sapiens, UniProt P04629); settings: read-out: % of control activity at 71 nM
T18 construct: T7 phage fusion (most kinases) or DNA tag after HEK-293 expression; purchased DiscoverX (Fremont, CA), ScanEDGE; host or cells: T7 phage in E. coli BL21-derived host, or HEK-293
Procedure, shortened: as §1

T17 sequence (P08631 whole entry, the tested form may be a part): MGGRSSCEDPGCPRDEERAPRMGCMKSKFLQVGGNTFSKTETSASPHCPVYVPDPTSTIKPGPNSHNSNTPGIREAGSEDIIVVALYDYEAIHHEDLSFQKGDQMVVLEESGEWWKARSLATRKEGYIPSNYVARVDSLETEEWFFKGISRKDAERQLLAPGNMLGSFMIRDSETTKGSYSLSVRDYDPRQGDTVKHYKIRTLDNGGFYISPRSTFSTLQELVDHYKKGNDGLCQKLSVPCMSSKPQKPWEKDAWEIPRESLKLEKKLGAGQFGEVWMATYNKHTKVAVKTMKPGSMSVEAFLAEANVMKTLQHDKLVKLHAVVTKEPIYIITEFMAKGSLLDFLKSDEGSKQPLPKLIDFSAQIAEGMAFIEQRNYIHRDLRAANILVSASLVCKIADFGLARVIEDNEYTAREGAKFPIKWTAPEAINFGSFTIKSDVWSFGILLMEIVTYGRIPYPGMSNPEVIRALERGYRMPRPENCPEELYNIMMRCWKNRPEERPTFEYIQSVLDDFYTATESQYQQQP
T3 sequence (P11309 whole entry, the tested form may be a part): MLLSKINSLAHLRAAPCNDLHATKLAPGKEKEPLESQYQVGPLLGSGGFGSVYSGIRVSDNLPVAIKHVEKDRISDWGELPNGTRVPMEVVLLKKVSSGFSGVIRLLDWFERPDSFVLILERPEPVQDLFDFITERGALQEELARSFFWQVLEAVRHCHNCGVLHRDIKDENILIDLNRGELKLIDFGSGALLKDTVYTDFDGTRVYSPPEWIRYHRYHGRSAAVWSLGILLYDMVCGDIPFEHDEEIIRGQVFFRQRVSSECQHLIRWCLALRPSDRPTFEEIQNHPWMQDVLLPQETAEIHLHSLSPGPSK
T15 sequence (P30530 26-894): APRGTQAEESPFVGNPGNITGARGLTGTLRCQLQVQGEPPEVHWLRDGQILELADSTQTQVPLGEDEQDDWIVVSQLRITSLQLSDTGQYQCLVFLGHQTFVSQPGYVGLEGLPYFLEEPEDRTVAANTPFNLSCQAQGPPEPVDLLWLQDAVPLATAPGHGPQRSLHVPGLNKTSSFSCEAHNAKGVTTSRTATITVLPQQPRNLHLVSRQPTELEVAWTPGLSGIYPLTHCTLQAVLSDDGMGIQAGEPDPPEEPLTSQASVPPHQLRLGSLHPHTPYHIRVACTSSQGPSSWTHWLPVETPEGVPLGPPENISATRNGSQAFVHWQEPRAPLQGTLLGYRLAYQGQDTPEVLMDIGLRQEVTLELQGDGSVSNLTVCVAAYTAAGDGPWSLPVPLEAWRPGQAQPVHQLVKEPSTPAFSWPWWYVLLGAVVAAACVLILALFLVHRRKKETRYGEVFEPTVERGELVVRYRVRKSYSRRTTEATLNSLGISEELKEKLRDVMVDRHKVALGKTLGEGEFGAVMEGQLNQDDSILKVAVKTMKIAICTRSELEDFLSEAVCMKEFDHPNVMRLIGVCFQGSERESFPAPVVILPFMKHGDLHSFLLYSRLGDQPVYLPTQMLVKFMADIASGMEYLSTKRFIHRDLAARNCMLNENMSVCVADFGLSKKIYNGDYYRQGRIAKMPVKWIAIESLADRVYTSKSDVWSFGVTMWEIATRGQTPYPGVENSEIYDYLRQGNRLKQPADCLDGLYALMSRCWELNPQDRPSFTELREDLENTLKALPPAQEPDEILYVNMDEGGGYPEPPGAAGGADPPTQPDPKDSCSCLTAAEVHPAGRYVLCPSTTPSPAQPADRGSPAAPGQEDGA
T5 sequence (Q9H0K1 whole entry, the tested form may be a part): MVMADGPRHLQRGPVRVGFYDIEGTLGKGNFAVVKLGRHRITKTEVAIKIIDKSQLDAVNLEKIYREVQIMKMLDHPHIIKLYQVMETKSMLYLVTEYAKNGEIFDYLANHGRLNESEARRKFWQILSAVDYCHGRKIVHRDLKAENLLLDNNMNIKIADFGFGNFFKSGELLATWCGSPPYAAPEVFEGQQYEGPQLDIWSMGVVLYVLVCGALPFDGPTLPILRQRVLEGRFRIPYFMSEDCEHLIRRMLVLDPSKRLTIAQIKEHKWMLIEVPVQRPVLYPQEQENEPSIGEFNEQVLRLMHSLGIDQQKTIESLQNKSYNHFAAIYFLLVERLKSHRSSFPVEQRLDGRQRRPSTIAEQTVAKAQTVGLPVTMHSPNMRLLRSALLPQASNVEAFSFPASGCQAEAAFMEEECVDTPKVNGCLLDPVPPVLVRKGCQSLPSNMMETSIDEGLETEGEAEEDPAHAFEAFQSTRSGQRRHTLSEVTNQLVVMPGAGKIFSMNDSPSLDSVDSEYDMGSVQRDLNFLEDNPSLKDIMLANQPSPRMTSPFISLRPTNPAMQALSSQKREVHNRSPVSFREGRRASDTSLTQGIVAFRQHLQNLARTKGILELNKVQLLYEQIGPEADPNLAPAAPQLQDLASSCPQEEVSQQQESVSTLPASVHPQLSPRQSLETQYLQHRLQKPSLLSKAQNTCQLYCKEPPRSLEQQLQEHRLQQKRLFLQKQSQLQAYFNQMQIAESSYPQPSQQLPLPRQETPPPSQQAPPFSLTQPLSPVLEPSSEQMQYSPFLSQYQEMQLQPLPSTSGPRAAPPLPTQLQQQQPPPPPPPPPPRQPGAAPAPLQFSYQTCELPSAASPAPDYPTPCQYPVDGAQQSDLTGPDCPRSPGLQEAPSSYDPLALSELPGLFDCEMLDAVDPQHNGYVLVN
T6 sequence (Q9Y6R4 whole entry, the tested form may be a part): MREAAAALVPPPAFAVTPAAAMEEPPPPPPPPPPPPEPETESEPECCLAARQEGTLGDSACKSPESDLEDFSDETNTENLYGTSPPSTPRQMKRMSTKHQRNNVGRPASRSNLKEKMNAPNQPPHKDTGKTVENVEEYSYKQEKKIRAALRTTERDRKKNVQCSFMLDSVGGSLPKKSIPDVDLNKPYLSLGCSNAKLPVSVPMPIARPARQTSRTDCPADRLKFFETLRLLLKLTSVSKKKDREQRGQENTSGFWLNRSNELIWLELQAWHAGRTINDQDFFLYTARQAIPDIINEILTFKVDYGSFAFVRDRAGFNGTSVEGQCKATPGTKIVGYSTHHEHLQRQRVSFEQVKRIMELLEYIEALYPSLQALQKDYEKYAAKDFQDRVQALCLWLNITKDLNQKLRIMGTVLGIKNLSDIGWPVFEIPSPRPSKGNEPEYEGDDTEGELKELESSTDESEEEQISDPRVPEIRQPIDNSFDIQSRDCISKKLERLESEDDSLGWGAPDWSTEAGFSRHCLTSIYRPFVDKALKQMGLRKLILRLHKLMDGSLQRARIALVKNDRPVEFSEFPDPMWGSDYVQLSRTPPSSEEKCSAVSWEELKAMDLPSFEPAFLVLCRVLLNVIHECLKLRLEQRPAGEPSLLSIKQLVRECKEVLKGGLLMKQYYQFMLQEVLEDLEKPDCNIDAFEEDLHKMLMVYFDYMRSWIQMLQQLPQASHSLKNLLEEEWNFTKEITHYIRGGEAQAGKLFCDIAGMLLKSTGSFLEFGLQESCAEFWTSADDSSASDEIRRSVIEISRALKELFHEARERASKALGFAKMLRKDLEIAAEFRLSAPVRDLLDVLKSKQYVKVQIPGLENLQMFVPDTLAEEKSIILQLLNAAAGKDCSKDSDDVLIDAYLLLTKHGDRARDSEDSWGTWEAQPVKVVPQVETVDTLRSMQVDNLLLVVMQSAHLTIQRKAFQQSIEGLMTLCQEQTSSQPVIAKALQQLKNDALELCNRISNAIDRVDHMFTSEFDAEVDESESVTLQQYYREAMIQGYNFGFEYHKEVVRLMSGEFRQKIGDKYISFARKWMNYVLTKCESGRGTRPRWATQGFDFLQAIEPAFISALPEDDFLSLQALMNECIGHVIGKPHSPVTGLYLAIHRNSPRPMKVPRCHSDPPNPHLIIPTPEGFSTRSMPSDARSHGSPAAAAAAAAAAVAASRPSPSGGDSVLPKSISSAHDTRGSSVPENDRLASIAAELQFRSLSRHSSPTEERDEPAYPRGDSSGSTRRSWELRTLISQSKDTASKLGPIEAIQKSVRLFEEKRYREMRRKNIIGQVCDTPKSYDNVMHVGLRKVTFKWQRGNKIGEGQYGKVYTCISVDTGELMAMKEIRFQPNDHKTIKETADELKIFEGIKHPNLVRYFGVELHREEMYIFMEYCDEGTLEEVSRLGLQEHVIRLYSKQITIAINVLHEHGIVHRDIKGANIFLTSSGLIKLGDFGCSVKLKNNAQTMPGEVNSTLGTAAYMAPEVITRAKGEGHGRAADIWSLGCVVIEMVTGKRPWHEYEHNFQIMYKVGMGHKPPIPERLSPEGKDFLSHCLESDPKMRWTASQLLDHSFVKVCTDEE
T8 sequence (P45983 whole entry, the tested form may be a part): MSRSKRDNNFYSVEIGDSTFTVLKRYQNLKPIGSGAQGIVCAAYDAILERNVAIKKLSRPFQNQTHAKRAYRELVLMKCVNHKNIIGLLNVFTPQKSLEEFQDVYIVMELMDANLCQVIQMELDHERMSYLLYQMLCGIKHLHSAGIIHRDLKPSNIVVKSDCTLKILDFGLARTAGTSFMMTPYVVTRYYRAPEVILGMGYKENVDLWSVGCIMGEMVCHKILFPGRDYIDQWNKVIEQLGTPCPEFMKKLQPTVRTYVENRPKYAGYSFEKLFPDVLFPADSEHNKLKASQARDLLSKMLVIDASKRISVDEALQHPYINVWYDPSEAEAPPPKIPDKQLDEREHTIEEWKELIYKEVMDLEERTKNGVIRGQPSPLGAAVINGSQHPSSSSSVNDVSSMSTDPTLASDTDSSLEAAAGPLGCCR
T4 sequence (P50750 whole entry, the tested form may be a part): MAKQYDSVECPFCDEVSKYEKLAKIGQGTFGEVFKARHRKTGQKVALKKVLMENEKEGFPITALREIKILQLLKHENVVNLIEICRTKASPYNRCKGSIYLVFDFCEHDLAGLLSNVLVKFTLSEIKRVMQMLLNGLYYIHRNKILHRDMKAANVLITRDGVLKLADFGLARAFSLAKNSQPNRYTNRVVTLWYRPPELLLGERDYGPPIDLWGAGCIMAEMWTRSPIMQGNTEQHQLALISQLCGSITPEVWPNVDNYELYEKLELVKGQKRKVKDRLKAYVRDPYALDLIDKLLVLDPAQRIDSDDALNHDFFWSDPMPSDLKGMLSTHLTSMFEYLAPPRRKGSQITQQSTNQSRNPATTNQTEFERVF

- remaining binding at 0.071 µM [1]: 100%
- remaining binding at 0.071 µM [2]: 88%
- remaining binding at 0.071 µM [3]: 89%
- remaining binding at 0.071 µM [4]: 88%
- remaining binding at 0.071 µM [5]: 10%
- remaining binding at 0.071 µM [6]: 60%
- remaining binding at 0.071 µM [7]: 68%
- remaining binding at 0.071 µM [8]: 97%
- remaining binding at 0.071 µM [9]: 75%
- remaining binding at 0.071 µM [10]: 84%
- remaining binding at 0.071 µM [11]: 94%
- remaining binding at 0.071 µM [12]: 3.6%
- remaining binding at 0.071 µM [13]: 12%
- remaining binding at 0.071 µM [14]: 93%
- remaining binding at 0.071 µM [15]: 68%
- remaining binding at 0.071 µM [16]: 5.3%
- remaining binding at 0.071 µM [17]: 1.2%
- remaining binding at 0.071 µM [18]: 74%
Structure (SMILES): COc1ccc(N2C(=O)N(c3c(C)cccc3C)Cc3cnc(Nc4ccc(C5CCN(C)CC5)c(OC)c4)nc32)c(OC)c1 [YKL-05-093]
